For 19 compounds, IC50 results are on record in US20150157739A1, “Imidazo[2,1]thiazol-3-one derivatives” (Hoffmann-La Roche Inc., priority 2012, published 2015).

Broadly, the IC50 is the concentration that inhibits the measured activity by half.

Test [1] has as its target T1, aggregated recombinant human-microtubule associated protein Tau (Homo sapiens, UniProt P10636).
T1 construct: Recombinant human-microtubule associated protein Tau purified from E. coli is aggregated at a concentration of 5 μM with Arachidonic Acid (100 μM) in Tris 10 mM pH8, 24 h at 37° C
The test is described as follows: Thiazin-red R displacement fluorescence assay on aggregated Tau. In kind it is binding. Particulars: displacement of Thiazin-red R from aggregated Tau; compound 0.3 nM to 10000 nM; 30 min room temperature; Ex 531 nm/Em 595 nm.

The target in test [2] is T2, aggregated synthetic Aβ40 (Homo sapiens, UniProt P05067).
T2 construct: Synthetic Aβ40 is aggregated at a concentration of 50 μM
T2 sequence (P05067 672-711 limits assumed): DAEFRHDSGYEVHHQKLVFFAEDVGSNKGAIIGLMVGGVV
The test is described as follows: Thiazin-red R displacement fluorescence assay on aggregated A-beta. In kind it is binding. Particulars: displacement of Thiazin-red R from aggregated Aβ40; compound 0.3 nM to 10000 nM; 30 min room temperature; Ex 531 nm/Em 595 nm.

T1 sequence (P10636 whole entry): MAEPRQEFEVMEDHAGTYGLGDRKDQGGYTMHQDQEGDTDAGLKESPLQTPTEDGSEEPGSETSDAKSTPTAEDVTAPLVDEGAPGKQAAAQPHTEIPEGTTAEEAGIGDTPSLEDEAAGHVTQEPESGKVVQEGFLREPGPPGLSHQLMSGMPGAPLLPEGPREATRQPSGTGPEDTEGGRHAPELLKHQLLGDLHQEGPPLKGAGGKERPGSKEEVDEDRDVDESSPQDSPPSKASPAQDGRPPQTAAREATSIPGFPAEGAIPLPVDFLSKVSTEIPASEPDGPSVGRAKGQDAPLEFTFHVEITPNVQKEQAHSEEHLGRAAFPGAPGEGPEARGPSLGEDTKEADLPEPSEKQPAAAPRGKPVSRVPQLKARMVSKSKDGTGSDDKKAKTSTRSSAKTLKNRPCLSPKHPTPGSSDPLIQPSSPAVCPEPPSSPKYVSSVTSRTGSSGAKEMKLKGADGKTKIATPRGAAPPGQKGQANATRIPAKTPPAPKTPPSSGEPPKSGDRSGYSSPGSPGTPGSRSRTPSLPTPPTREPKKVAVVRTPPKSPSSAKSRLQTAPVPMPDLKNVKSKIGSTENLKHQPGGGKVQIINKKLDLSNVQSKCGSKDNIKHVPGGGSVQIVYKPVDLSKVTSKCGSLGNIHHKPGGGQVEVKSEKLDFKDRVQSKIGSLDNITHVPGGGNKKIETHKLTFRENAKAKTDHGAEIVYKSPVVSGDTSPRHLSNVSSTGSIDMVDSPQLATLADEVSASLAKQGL

As to `COc1cc(/C=c2\sc3nc(-c4ccc(C(=O)N(C)C)cc4)cn3c2=O)cc(Cl)c1O` [Example 126, 4-{2-[1-(3-Chloro-4-hydroxy-5-methoxy-phenyl)-meth-(Z)-ylidene]-3-oxo-2,3-dihydro-imidazo[2,1-b]thiazol-6-yl}-N,N-dimethyl-benzamide], the IC50 in test [1] came to 0.028 µM; in test [2], 0.55 µM.

For `COc1cc(/C=c2\sc3nc(-c4ccc(C(=O)N5CCC(F)CC5)cc4)cn3c2=O)cc(Cl)c1O` [Example 127, 2-[1-(3-Chloro-4-hydroxy-5-methoxy-phenyl)-meth-(Z)-ylidene]-6-[4-(4-fluoro-piperidine-1-carbonyl)-phenyl]-imidazo[2,1-b]thiazol-3-one], the IC50 in test [1] was 0.006 µM; in test [2] it was 0.118 µM.

In the case of `CCCN(C)C(=O)c1ccc(-c2cn3c(=O)/c(=C/c4cc(Cl)c(O)c(OC)c4)sc3n2)cc1` [Example 128, 4-{2-[1-(3-Chloro-4-hydroxy-5-methoxy-phenyl)-meth-(Z)-ylidene]-3-oxo-2,3-dihydro-imidazo[2,1-b]thiazol-6-yl}-N-methyl-N-propyl-benzamide], the IC50 in test [1] is 0.009 µM; in test [2] it was 0.218 µM.

As for `CCCOc1cc(/C=c2\sc3nc(-c4cnccn4)cn3c2=O)cc(Cl)c1O` [Example 129, 2-[1-(3-Chloro-4-hydroxy-5-propoxy-phenyl)-meth-(Z)-ylidene]-6-pyrazin-2-yl-imidazo[2,1-b]thiazol-3-one], the IC50 amounted to 0.064 µM in test [1] and 2.22 µM in test [2].

With `CCCOc1cc(/C=c2\sc3nc(-c4cncnc4)cn3c2=O)cc(Cl)c1O` [Example 130, 2-[1-(3-Chloro-4-hydroxy-5-propoxy-phenyl)-meth-(Z)-ylidene]-6-pyrimidin-5-yl-imidazo[2,1-b]thiazol-3-one], the IC50 turned out to be 0.067 µM in test [1] and 1.94 µM in test [2].

In the case of `CCCOc1cc(/C=c2\sc3nc(-c4ccsc4)cn3c2=O)cc(Cl)c1O` [Example 131, 2-[1-(3-Chloro-4-hydroxy-5-propoxy-phenyl)-meth-(Z)-ylidene]-6-thiophen-3-yl-imidazo[2,1-b]thiazol-3-one], the values for the IC50 in test [1] and in test [2] were 0.026 µM and 0.979 µM, respectively.

For `CCCOc1cc(/C=c2\sc3nc(-c4cccs4)cn3c2=O)cc(Cl)c1O` [Example 132, 2-[1-(3-Chloro-4-hydroxy-5-propoxy-phenyl)-meth-(Z)-ylidene]-6-thiophen-2-yl-imidazo[2,1-b]thiazol-3-one], the IC50 in test [1] is 0.041 µM; in test [2], 0.718 µM.

Take `COc1cc(/C=c2\sc3nc(-c4ccc(C(=O)N5CC(F)C5)cc4)cn3c2=O)cc(Cl)c1O` [Example 134, 2-[1-(3-Chloro-4-hydroxy-5-methoxy-phenyl)-meth-(Z)-ylidene]-6-[4-(3-fluoro-azetidine-1-carbonyl)-phenyl]-imidazo[2,1-b]thiazol-3-one]: the IC50 in test [1] came to 0.002 µM; in test [2], 0.133 µM.

Turning to `CCCOc1cc(/C=c2\sc3nc(-c4ccccn4)cn3c2=O)cc(Cl)c1O` [Example 136, 2-[1-(3-Chloro-4-hydroxy-5-propoxy-phenyl)-meth-(Z)-ylidene]-6-pyridin-2-yl-imidazo[2,1-b]thiazol-3-one], the results for the IC50 in test [1] and in test [2] were 0.03 µM and 0.293 µM, respectively.

As for `COc1cc(/C=c2\sc3nc(-c4ccc(C(=O)N(C)CCCF)cc4)cn3c2=O)cc(Cl)c1O` [Example 137], the IC50 in test [1] was determined as 0.007 µM; in test [2], 0.332 µM.

`COc1cc(/C=c2\sc3nc(-c4ccc(C(=O)O)cc4)cn3c2=O)cc(F)c1O` [Example 138, 4-{2-[1-(3-Fluoro-4-hydroxy-5-methoxy-phenyl)-meth-(Z)-ylidene]-3-oxo-2,3-dihydro-imidazo[2,1-b]thiazol-6-yl}-benzoic acid]: the IC50 in test [1] worked out at 0.014 µM; in test [2] it was 0.898 µM.

As for `COc1cc(/C=c2\sc3nc(-c4ccc(C(=O)N(C)CCF)cc4)cn3c2=O)cc(F)c1O` [Example 146], the IC50 is 0.048 µM in test [1] and 1.01 µM in test [2].

Consider `COc1cc(/C=c2\sc3nc(-c4ccc(C(=O)N(C)CCCF)cc4)cn3c2=O)cc(F)c1O` [Example 147], for which the IC50 in test [1] amounted to 0.041 µM; in test [2] it was 0.448 µM.

As for `COc1cc(/C=c2\sc3nc(-c4ccc(C(=O)OCCF)cc4)cn3c2=O)cc(Cl)c1O` [Example 148, 4-{2-[1-(3-Chloro-4-hydroxy-5-methoxy-phenyl)-meth-(Z)-ylidene]-3-oxo-2,3-dihydro-imidazo[2,1-b]thiazol-6-yl}-benzoic acid 2-fluoro-ethyl ester], the IC50 was found to be 0.004 µM in test [1] and 0.038 µM in test [2].

As for `COc1cc(/C=c2\sc3nc(-c4ccc(C(=O)OCCCF)cc4)cn3c2=O)cc(Cl)c1O` [Example 149, 4-{2-[1-(3-Chloro-4-hydroxy-5-methoxy-phenyl)-meth-(Z)-ylidene]-3-oxo-2,3-dihydro-imidazo[2,1-b]thiazol-6-yl}-benzoic acid 3-fluoro-propyl ester], the IC50 in test [1] was 0.002 µM; in test [2], 0.168 µM.

On to `COc1cc(/C=c2\sc3nc(-c4ccc(C(=O)NCCNC(=O)OC(C)(C)C)cc4)cn3c2=O)cc(Cl)c1O` [Example 150, [2-(4-{2-[1-(3-Chloro-4-hydroxy-5-methoxy-phenyl)-meth-(Z)-ylidene]-3-oxo-2,3-dihydro-imidazo[2,1-b]thiazol-6-yl}-benzoylamino)-ethyl]-carbamic acid tert-butyl ester], for which the values for the IC50 in test [1] and in test [2] were 0.0018 µM and 0.118 µM, respectively.

Consider `COc1cc(/C=c2\sc3nc(-c4ccc(C(=O)NCCN)cc4)cn3c2=O)cc(Cl)c1O` [Example 151, N-(2-Amino-ethyl)-4-{2-[1-(3-chloro-4-hydroxy-5-methoxy-phenyl)-meth-(Z)-ylidene]-3-oxo-2,3-dihydro-imidazo[2,1-b]thiazol-6-yl}-benzamide], for which the IC50 in test [1] was 0.012 µM; in test [2] it was 0.024 µM.

`COc1cc(/C=c2\sc3nc(-c4cccc(S(=O)(=O)F)c4)cn3c2=O)cc(Cl)c1O` [Example 152, 3-{2-[1-(3-Chloro-4-hydroxy-5-methoxy-phenyl)-meth-(Z)-ylidene]-3-oxo-2,3-dihydro-imidazo[2,1-b]thiazol-6-yl}-benzenesulfonyl fluoride]: the results for the IC50 in test [1] and in test [2] were 0.007 µM and 0.019 µM, respectively.

Turning to `Cc1cc(-c2cn3c(=O)/c(=C/c4cc(Cl)c(O)c(OCCCF)c4)sc3n2)cc(C)n1` [Example 153, 2-[1-[3-Chloro-5-(3-fluoro-propoxy)-4-hydroxy-phenyl]-meth-(Z)-ylidene]-6-(2,6-dimethyl-pyridin-4-yl)-imidazo[2,1-b]thiazol-3-one], the IC50 amounted to 0.046 µM in test [1] and 0.605 µM in test [2].
